Assay results from US8710198B2, “Caprazene as a novel compound and derivatives thereof, and caprazol as a novel compound and derivatives thereof” (Meiji Seika Pharma Co., Ltd., priority 2003, dated 2014).

Experiments:
Type in all cases: cell-based
[1] = test system: Mycobacterium smegmatis ATCC607; assay: Minimum growth inhibitory concentration on agar culture medium with 1% glycerine by serial dilution method; details: agar culture medium with the addition of 1% glycerine
Method: (§1) Minimum growth inhibitory concentrations (mcg/ml) of caprazene-1′″-amide derivatives of the formula (II) against some of microorganisms were measured on an agar culture medium by a serial dilution method according to the standard method as provided by Japanese Society of Chemotherapy. For the cultivation of Mycobacterium smegmatis (one of […]), however, there was used an agar culture medium with the addition of 1% glycerine (the same applies to in the following tests).
(§2) Minimum growth inhibitory concentrations (mcg/ml) of some of the caprazene-1′″-ester derivative of the formula (III) against some of microorganisms were measured on an agar culture medium by a serial dilution method according to the standard method as provided by Japanese Society of Chemotherapy.
(§3) Minimum growth inhibitory concentrations (mcg/ml) of some of the caprazol-1′″-amide derivative of the formula (V) against a variety of microorganisms were measured on an agar medium by a serial dilution method according to the standard method as provided by Japanese Society of Chemotherapy.
as §3, with “caprazol-1′″-amide-3′″-ester” for “caprazol-1′″-amide”, “(VI)” for “(V)”
as §3, with “caprazol-3′″-ester derivative or caprazol-1′″-ester-3′″-ester” for “caprazol-1′″-amide”, “(VII)” for “(V)”

[2] = test system: Staphylococcus aureus FDA209P; assay: Minimum growth inhibitory concentration on agar culture medium by serial dilution method (Japanese Society of Chemotherapy)
Method: as §1, §2, §3
as §3, with “caprazol-1′″-amide-3′″-ester” for “caprazol-1′″-amide”, “(VI)” for “(V)”
as §3, with “caprazol-3′″-ester derivative or caprazol-1′″-ester-3′″-ester” for “caprazol-1′″-amide”, “(VII)” for “(V)”
(§4) Minimum growth inhibitory concentrations (mcg/ml) of some of the derivative of the formula (VIII) against a variety of microorganisms were measured on an agar medium by a serial dilution method according to the standard method as provided by Japanese Society of Chemotherapy.

[3] = test system: Micrococcus luteus FDA16; assay: as above
Method: as §1, §2, §3
as §4, with “of the caprazol-1′″-amide-3′″-ester derivative of” for “of the derivative of”, “the formula (VI) against a” for “the formula (VIII) against a”
as §4, with “of the caprazol-3′″-ester derivative or caprazol-1′″-ester-3′″-ester derivative of” for “of the derivative of”, “the formula (VII) against a” for “the formula (VIII) against a”
as §4

SMILES	Minimum growth inhibitory concentration (mcg/ml) against bacteria Mycobacterium smegmatis ATCC607 [1] [µg/mL]	Minimum growth inhibitory concentration (mcg/ml) against bacteria Staphylococcus aureus FDA209P [2] [µg/mL]	Minimum growth inhibitory concentration (mcg/ml) against bacteria Micrococcus luteus FDA16 [3] [µg/mL]
CCCCCCCCCCCCCc1ccc(NC(=O)C2=CCN(C)C(C(OC3OC(CN)C(O)C3O)C3OC(n4ccc(=O)[nH]c4=O)C(O)C3O)C(=O)N2C)cc1 (stereo not drawn) [Compound II-13]	12.5	3.13	1.56
CCCCCCCCCCC(=O)OC1CN(C)C(C(OC2OC(CN)C(O)C2O)C2OC(n3ccc(=O)[nH]c3=O)C(O)C2O)C(=O)N(C)C1C(=O)O (stereo not drawn) [Compound VII-E]	0.39	1.56	1.56
CCCCCCCCCCCCc1ccc(NC(=O)C2=CCN(C)C(C(OC3OC(CN)C(O)C3O)C3OC(n4ccc(=O)[nH]c4=O)C(O)C3O)C(=O)N2C)cc1 (stereo not drawn) [Compound II-12]	6.25	3.13	0.78
CCCCCCCCCCCCCCCCCCOC(=O)C1=CCN(C)C(C(OC2OC(CN)C(O)C2O)C2OC(n3ccc(=O)[nH]c3=O)C(O)C2O)C(=O)N1C (stereo not drawn) [Compound III-CC]	>100	12.5	6.25
CCCCCCCCC(=O)OC1CN(C)C(C(OC2OC(CN)C(O)C2O)C2OC(n3ccc(=O)[nH]c3=O)C(O)C2O)C(=O)N(C)C1C(=O)O (stereo not drawn) [Compound VII-C]	0.78	12.5	>50
CCCCCCCc1ccc(NC(=O)C2=CCN(C)C(C(OC3OC(CN)C(O)C3O)C3OC(n4ccc(=O)[nH]c4=O)C(O)C3O)C(=O)N2C)cc1 (stereo not drawn) [Compound II-7]	<0.20	1.56	<0.20
CCCCCCCCCCCc1ccc(NC(=O)C2=CCN(C)C(C(OC3OC(CN)C(O)C3O)C3OC(n4ccc(=O)[nH]c4=O)C(O)C3O)C(=O)N2C)cc1 (stereo not drawn) [Compound II-11]	3.13	3.13	0.39
CCCCCCCCCCCCNC(=O)C1=CCN(C)C(C(OC2OC(CNC(=O)OC(C)(C)C)C(O)C2O)C2OC(n3ccc(=O)[nH]c3=O)C(O)C2O)C(=O)N1C (stereo not drawn) [Compound II-G-N-Boc]	50	50	50
CCCc1ccc(NC(=O)C2=CCN(C)C(C(OC3OC(CN)C(O)C3O)C3OC(n4ccc(=O)[nH]c4=O)C(O)C3O)C(=O)N2C)cc1 (stereo not drawn) [Compound II-3]	12.5	25	3.13
CCCCCCCCCCCCNC(=O)C1C(O)CN(C)C(C(OC2OC(CN)C(O)C2O)C2OC(n3ccc(=O)[nH]c3=O)C(O)C2O)C(=O)N1C (stereo not drawn) [Compound V-G, caprazol-1′″-dodecyl-amide derivative]	6.25	12.5	25
CCCCCCCCCCCCCNC(=O)C1=CCN(C)C(C(OC2OC(CN)C(O)C2O)C2OC(n3ccc(=O)[nH]c3=O)C(O)C2O)C(=O)N1C (stereo not drawn) [Compound II-H]	<0.20	3.13	0.78
CCCCCCCCCC=CCOC(=O)C1=CCN(C)C(C(OC2OC(CN)C(O)C2O)C2OC(n3ccc(=O)[nH]c3=O)C(O)C2O)C(=O)N1C (stereo not drawn) [Compound III-EE]	12.5	6.25	1.56
CCCCCCCCCCCCCCc1ccc(NC(=O)C2=CCN(C)C(C(OC3OC(CN)C(O)C3O)C3OC(n4ccc(=O)[nH]c4=O)C(O)C3O)C(=O)N2C)cc1 (stereo not drawn) [Compound II-14]	25	6.25	3.13
CCCCCCC(=O)OC1CN(C)C(C(OC2OC(CN)C(O)C2O)C2OC(n3ccc(=O)[nH]c3=O)C(O)C2O)C(=O)N(C)C1C(=O)O (stereo not drawn) [Compound VII-A]	1.56	25	>50
CCCCCCc1ccc(NC(=O)C2=CCN(C)C(C(OC3OC(CN)C(O)C3O)C3OC(n4ccc(=O)[nH]c4=O)C(O)C3O)C(=O)N2C)cc1 (stereo not drawn) [Compound II-6]	0.78	1.56	0.39
CCCCCCCCCCNC(=O)C1=CCN(C)C(C(OC2OC(CN)C(O)C2O)C2OC(n3ccc(=O)[nH]c3=O)C(O)C2O)C(=O)N1C (stereo not drawn) [Compound II-E]	0.78	25	0.39
CCCCCCCCCc1ccc(NC(=O)C2=CCN(C)C(C(OC3OC(CN)C(O)C3O)C3OC(n4ccc(=O)[nH]c4=O)C(O)C3O)C(=O)N2C)cc1 (stereo not drawn) [Compound II-9]	1.56	3.13	0.39
CCCCCCCNC(=O)C1=CCN(C)C(C(OC2OC(CN)C(O)C2O)C2OC(n3ccc(=O)[nH]c3=O)C(O)C2O)C(=O)N1C (stereo not drawn) [Compound II-B]	25	25	1.56
CCCCCCCCCCCCCCCCCCNC(=O)C1=CCN(C)C(C(OC2OC(CN)C(O)C2O)C2OC(n3ccc(=O)[nH]c3=O)C(O)C2O)C(=O)N1C (stereo not drawn) [Compound II-M]	3.13	6.25	0.78
CCCCCCC#CCCOC(=O)C1=CCN(C)C(C(OC2OC(CN)C(O)C2O)C2OC(n3ccc(=O)[nH]c3=O)C(O)C2O)C(=O)N1C (stereo not drawn) [Compound III-GG]	25	50	6.25
CCCCCCNC(=O)C1=CCN(C)C(C(OC2OC(CN)C(O)C2O)C2OC(n3ccc(=O)[nH]c3=O)C(O)C2O)C(=O)N1C (stereo not drawn) [Compound II-A]	100	>100	3.13
CCCCCCCCC=CCCCCCCCCNC(=O)C1=CCN(C)C(C(OC2OC(CN)C(O)C2O)C2OC(n3ccc(=O)[nH]c3=O)C(O)C2O)C(=O)N1C (stereo not drawn) [Compound II-R]	1.56	1.56	1.56
CCCCCCCCC=CCCCCCCCC(=O)OC1CN(C)C(C(OC2OC(CN)C(O)C2O)C2OC(n3ccc(=O)[nH]c3=O)C(O)C2O)C(=O)N(C)C1C(=O)O (stereo not drawn) [Compound VII-R]	6.25	1.56	3.13
